Active and inactive are the calls of the source.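 How the source made its calls: active means compounds giving half or more protection of infected cells from virus-caused growth loss, again on retest; inactive means the rest.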
Tested on: CEM cells HIV-1 protection, formazan growth assay
Experiment: NCI AIDS Antiviral Assay
Settings: for IC50: measured here: growth of uninfected CEM cells
Outline: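 Protection of CEM cells against HIV-1 was scored from cell growth (soluble formazan) across five concentrations, with parallel uninfected cells. Lack of protection may reflect toxicity.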

| SMILES | EC50 | IC50 | outcome |
| --- | --- | --- | --- |
| NNC(=O)C(=O)N/N=C(\CCCC(=O)Nc1ccc(Cl)cc1)CC(=O)c1ccc(F)cc1 | > 269 µM | > 269 µM |  |
| CCOP(=S)(OCC)Oc1cc(C)nc(C(C)C)n1 | > 309 µM | > 309 µM |  |
| CCCNC(C#N)c1ccc(C(C#N)NCCC)cc1 (stereo not given) | > 200 µM | 38.9 µM |  |
| CCOC(=O)c1nc2ccc(C(F)(F)F)cc2nc1NCc1ccc(OC)cc1 | > 200 µM | 38 µM |  |
| N/N=C1\CCCc2c1no[n+]2[O-] | > 200 µM | > 200 µM |  |
| Clc1ccc(CN2COc3c(cc(Cl)c4cccnc34)C2)c(Cl)c1 | > 100 µM | 1.74 µM |  |
| Cc1ccc(Nc2nnc(CSc3ccc(Cl)cc3)s2)c(S(=O)(=O)O)c1 | > 200 µM | 148 µM |  |
| Clc1cccc(Cl)c1C1CSc2ccccc2N=C1c1ccccc1 (stereo not given) | > 57.5 µM | 7.24 µM |  |
| CCOC(=O)Cc1oc2c(C(C)=O)c(O)c(C)c(O)c2c1C | > 200 µM | 81.3 µM |  |
| COc1cc2c(cc1O)[C@H](C)C(c1ccc(OC)c(OC)c1)O2 (stereo not given in full) | > 214 µM | 10.5 µM |  |
| CCOC(=O)C1(Cc2ccccc2)Cc2ccccc2C1=O (stereo not given) | > 200 µM | 37.2 µM |  |
| CC(=O)Nc1ccc(Nc2cc(=O)n(C)c(=O)[nH]2)cc1 | > 200 µM | > 200 µM |  |
| O=C(NC1=NC2C=CC([N+](=O)[O-])=CC2S1)C(=O)Nn1c(=S)[nH]c2ccccc2c1=O (stereo not given) | > 81.3 µM | 74.1 µM |  |
| CC1(Cl)C(=O)NN=C1c1ccc([N+](=O)[O-])cc1 (stereo not given) | > 200 µM | 17.8 µM |  |
| O=C(Nc1cc(Cl)c(Cl)cc1Cl)C(=O)C1C=CCS1(=O)=O (stereo not given) | > 51.3 µM | > 51.3 µM |  |
| CCOC(=O)c1ccc(/C(C)=N/NC(N)=S)cc1 |  |  | inactive |
| COc1ccc(N2C(=O)[C@H]3[C@H]4CC(C(C)(C)C)CC[C@H]4c4c(n(C)c5ccccc45)[C@H]3C2=O)cc1 (stereo not given in full) | > 15.1 µM | > 15.1 µM |  |
| Cc1cccc(C)c1NC(=O)CCCC(=O)C1CC(=O)CCC1=O (stereo not given) | > 550 µM | > 550 µM |  |
| COc1ccc(-c2onc(-c3c(C)cc(C)cc3C)c2C2=NCCN2)cc1 | > 72.4 µM | > 72.4 µM |  |
| O=C(CC(NC(=O)C(F)(F)F)C(=O)O)OCc1ccccc1 (stereo not given) | > 200 µM | > 200 µM |  |
| OC1c2c(ccc3c2CCC3)CC12Cc1ccccc1C2 (stereo not given) | > 200 µM | 38 µM |  |

| SMILES | EC50 | IC50 | outcome |
| --- | --- | --- | --- |
| CC(=O)NC1C(OCC(=O)NCCNc2ccc([N+](=O)[O-])c3[nH]c4ccccc4c(=O)c23)C(O)C(CO)OC1(C)OCc1ccccc1 (stereo not given) | > 200 µM | > 200 µM |  |
| O=c1[nH]c2c(cnn2-c2ccccc2)c(=O)n1O | > 200 µM | > 200 µM |  |
| CC1OC(OC2CC(O)(C(=O)CO)Cc3c(O)c4c(c(O)c32)C(=O)c2ccccc2C4=O)CC(N)C1O (stereo not given) | > 0.2 µM | 0.0631 µM |  |
| CN(C)CCOc1ccc(/C(=C(/CCCl)c2ccccc2)c2ccccc2)cc1 | > 43.7 µM | 0.38 µM |  |
| CCCCCCCC(=O)[O-].N.N.N.N.N.[Co+3].[O-][Cl+3]([O-])([O-])[O-] |  |  | inactive |
| COC(=O)Cc1c(C2=Nc3ccccc3C2(O)CC(=O)OC)[nH]c2ccccc12 (stereo not given) | > 200 µM | 91.2 µM |  |
| CC1(Cl)C(=O)NC(=O)N([C@H]2C[C@H](O)[C@@H](CO)O2)C1N=[N+]=[N-] (stereo not given in full) | > 200 µM | > 200 µM |  |
| CC1(C)OCC2OC(n3cnc4c(N)nc(Cl)nc43)C(OS(C)(=O)=O)C2O1 (stereo not given) | > 11.2 µM | 7.59 µM |  |
| CC(NC(C)(C)C)C(=O)c1cccc(Cl)c1 (stereo not given) | > 200 µM | > 200 µM |  |
| CCOC(=O)COc1ccc(S(=O)(=O)c2ccc(OCC(=O)OCC)cc2)cc1 | > 200 µM | > 200 µM |  |
| CCOC(=O)CC(=Nc1cc(C)on1)N(CC)CC | > 676 µM | > 676 µM |  |
| Cc1csc(NC23CC4CC(CC(C4)C2)C3)[n+]1C(P(=O)([O-])O)P(=O)(O)O (stereo not given) | > 200 µM | > 200 µM |  |
| c1cc[c]([Sn]([S]c2cccc3cccnc23)([S]c2cccc3cccnc23)[c]2ccccc2)cc1 |  |  | inactive |
| CCOC(=O)C1/C(=N/N)CN2CCc3c([nH]c4ccccc34)C12C(=O)OCC (stereo not given) | > 158 µM | 145 µM |  |
| CCCNC(=O)SCc1ccccc1 |  |  | inactive |
| CCOC(=O)c1nc2ccccc2nc1Nc1ccc(Cl)c(Cl)c1 | 151 µM | > 200 µM |  |
| O=c1[nH]c(Nc2cccc(CO)c2)nc2nc[nH]c12 | > 200 µM | > 200 µM |  |
| COc1c(C)cc2c(C(C)C)c(O)c(O)c(C=O)c2c1O | > 871 µM | 14.8 µM |  |
| C=C1C(=O)O[C@H](c2ccoc2)C[C@@H]1[C@@]1(C)CCCC2(C)C(=O)OCC21 (stereo not given in full) | > 145 µM | 95.5 µM |  |
| CCCC1=C(OC)C(=O)c2c(C)cc(Cl)nc2C1=O | > 200 µM | 4.07 µM |  |
| O=C1NCC(c2ccccc2)(c2ccccc2)O1 | > 200 µM | 151 µM |  |
